According to US20260177556A1, “PROXIMITY-BASED LABELING OF SIALYLATED GLYCOPROTEINS” (THE TRUSTEES OF PRINCETON UNIVERSITY, priority 2022, published 2026):

Tests used:
Assay type in all cases: cell-based
[1] = test system: sialylated cell-surface glycoproteins of HeLa cells; assay: Glycomap labeling efficiency by streptavidin western blot densitometry; conditions: for Experiment/control: ratio of densitometry readouts
Method: HeLa cells (approx. 0.4×10^6 cells) were incubated in 6 well dishes in complete DMEM (2 mL) containing Ac4ManNAz (100 μM) at 37° C. for 72 hours. The cells were washed with DPBS (3×1 mL) and then incubated in complete DMEM (2 mL) containing DBCO-iridium (5 μM) or DBCO-biotin (5 μM) at 37° C. for 24 hours. The cells were washed with DPBS (3×1 mL) and irradiated in DMEM (no phenol-red, 200 μL) containing biotin-diazirine (250 μM) at room temperature for 20 minutes in the biophotoreactor (blue LEDs). The cells were washed with DPBS (3×1 mL), scraped in DPBS (1 mL), and transferred to 1.5 mL Eppendorf tubes. The cells were pelleted at 400×G for 5 minutes and resuspended in Ripa lysis buffer (500 μL). The cells were lysed by sonication (bioruptor) at 4° C. for 10 minutes (20 cycles, 15 sec on 15 sec off at 100% power). The protein concentration was normalized by BCA assay and the lysate was analyzed by Western blot (20 μg of protein per lane, 12% gel, 150 V). The gel was transferred via iBlot 2 to an NC membrane Following transfer, the membrane was immersed in Odyssey Blocking Buffer (Li-Cor, 927-50000) and incubated at room temperature for 1 hour. The blocking buffer was replaced with fresh blocking buffer (10 mL) containing anti-Actin antibody (10 μL) and the membrane was rocked for 1 hour. The buffer was decanted, and the membranes were washed with 1×TBST (4×5 min) and water (3×5 sec). […]
Based on the Western blot results shown in FIG. 2B the efficiency of labeling via Glycomap can be calculated using densitometry. […]
The whole calculation is listed below: • Densitometry readout DBCO-Iridium full experiment: 108′442 • Densitometry readout DBCO-Iridium control: 6′164 • Experiment/control: 17.6 • Densitometry readout DBCO-Biotin full experiment: 158′335 • Densitometry readout DBCO-Biotin control: 5′937 • Experiment/control: 26.7 • Comparison: 17.6/26.7=0.7 tags per catalyst.

[2] = test system: HEK293T, HeLa or primary cervical epithelial cells; assay: Confocal microscopy of biotinylation after glycomap experiment; conditions: after Ac4ManNAz, 5 μM reagent, irradiation in presence of biotin-diazirine
Method: Cells (HEK293T, HeLa or primary cervical epithelial cells) (approx. 2×10^4 cells) were incubated in poly-lysine coated 8 well chamber slides in complete DMEM (200 μL) containing Ac4ManNAz (100 μM) at 37° C. for 48 hours. The cells were washed with DPBS (3×200 μL) and then incubated in complete DMEM (200 μL) containing DBCO-iridium (5 μM) or DBCO-biotin (5 μM) at 37° C. for 24 hours. The cells were washed with DPBS (3×200 μL) and irradiated in DMEM (no phenol-red, 200 μL) containing biotin-diazirine (250 μM) at room temperature for 20 minutes in the biophotoreactor (blue LEDs). The cells were washed with DPBS (3×200 μL) and fixed with prewarmed 4% paraformaldehyde (200 μL) at room temperature for 30 min. The cells were washed with DPBS (2×200 μL) and blocked with 3% BSA in DPBS (200 μL) at room temperature for 1 hour. The blocking buffer was replaced with fresh 3% BSA in DPBS (200 μL) containing Hoechst (1:1000), and Streptavidin-AlexaFluor 555 conjugate (1:1000). The cells were stained in the dark at room temperature for 1 hour and then stored in the dark at 4° C. The cells were imaged on a NIKON A1R-SI microscope (Nikon Instruments, Inc., Melville, NY) at 20× magnification. The images were processed with Fiji-ImageJ. Images shown are representative of the multiple cross-sectional images taken during each session.

HeLa cells [3] = assay: Colorimetric zinc assay
Method: The zinc assay was purchased from Abcam (ab102507), and the experiment was performed according to the procedure below, adapted from the supplier's instructions.
In transparent 10 cm dishes, HeLa cells were grown in complete medium (DMEM, supplemented with 10% FBS) in presence (×3) or absence (×3) of VC-sialidase (20 mU/mL medium) for 96 hours. The medium was exchanged every 24 hours and fresh sialidase was added at those timepoints. After 96 hours, the medium was removed and DPBS (5 mL) was added. The cells were scraped, transferred to 15 mL conical tubes, and pelleted at 400×g for 5 minutes. The supernatant was removed, and the cells were lysed in 50 μL EDTA-free lysis buffer lysed by sonication (bioruptor) at 4° C. for 10 minutes.
The lysate was clarified at 18′000×g for 15 minutes and analyzed by BCA assay. 30 µL of the cell lysate was transferred to a 1.5 mL Eppendorf tube containing 30 μL of 7% TCA to precipitate proteins. The mixture was clarified at 18′000×g for 5 minutes and […] of the resulting solution were used for the zinc detection assay.

HeLa cells [4] = assay: Mass spectrometry-based metabolomic quantification of sialidase-treated cells; conditions: sialidase-treated vs untreated HeLa cells, 72 hours
Method: In transparent 10 cm dishes (×6), HeLa cells were grown for 72 hours in 5 mL complete DMEM supplemented with 10% FBS in presence or absence of neuraminidase (20 U/mL). After 72 hours, the cells were washed with DPBS (3×5 mL) and incubated with TrypLE (1 mL) for 15 minutes at 37° C. The cells were transferred to 15 mL conical tubes using 4 mL DPBS to wash the plates. The cells were pelleted at 500×G for 4 minutes and resuspended in 1 mL DPBS. The cells were counted, and 500′000 cells/experiment were transferred to 1.5 mL Eppendorf tubes. The cells were pelleted (500×g for 4 min), the supernatant removed, and the cells were lysed with ice cold 80% MeOH (60 μL) for 30 minutes at 0° C. The cell lysate was clarified by centrifugation at 20′000×G for 25 minutes and the lysates were transferred to new 0.5 mL Eppendorf tubes and stored at −80° C. until mass spectrometry analysis.
HPLC-grade water, methanol, and acetonitrile were obtained from Thermo Fisher Scientific. Supernatant sample was thawed at room temperature and kept at 4° C. in an autosampler. Samples were analyzed using a Q Exactive Plus mass spectrometer coupled to Vanquish UHPLC system (Thermo Fisher Scientific). LC separation was achieved using a XBridge BEH Amide column (2.1 mm×150 mm, 2.5-μm particle size, 130-A pore size; Waters, Milford, MA, USA) using a gradient of solvent A (20 mM ammonium acetate+20 mM ammonium hydroxide in 95:5 water/acetonitrile [pH 9.45]) and solvent B (acetonitrile). Flow rate was […]. The gradient was 0 min, 90% B; 2 min, 90% B; 3 min, 75%; 7 min, 75% B; 8 min, 70%, 9 min, 70% B; 10 min, 50% B; 12 min, 50% B; 13 min, 25% B; 14 min, 25% B; 16 min, 0% B, 20.5 min, 0% B; 21 min, 90% B; 25 min, 90% B. The column temperature was 25° C., and the injection volume was 5 μL. The mass spectrometer is operated in full scan mode with separate runs in positive mode and negative mode covering m/z 70-1000, with resolution 140,000 at m/z 200, AGC target 5E6, maximum injection time 200 ms.
Data analyses were performed using El-Maven and the metabolites identified with an in-house library using authentic standards.^3 Metabolite signal intensity were then further processed in Excel (median correction) and Graphpad Prism (transformation, t-test, and volcano plot generation).

Compound	Experiment/control [1]	biotinylation by confocal microscopy [2]	Zinc concentration (nmol zinc/mg of protein-free lysate) (HeLa cells [3]; HeLa cells, VC-sialidase 20 mU/mL medium, 96 hours, single replicates)	zinc level vs untreated cells (HeLa cells [3]; sialidase-treated vs untreated HeLa cells)	level of cytidine diphosphate choline (CDP-choline) (HeLa cells [4])	level of cytidine diphosphate ethanolamine (CDP-Etn) (HeLa cells [4])	level of phosphate ethanolamine (P-Etn) (HeLa cells [4])	most metabolite levels (HeLa cells [4])	tags per catalyst (labeling efficiency) ([1]; HeLa cells, Ac4ManNAz 100 μM, streptavidin blot densitometry, relative to DBCO-biotin)
O=C(CCCC[C@@H]1SC[C@@H]2NC(=O)N[C@@H]21)NCC(C(=O)NCCC(=O)N1Cc2ccccc2C#Cc2ccccc21)S(=O)(=O)O (some centres unmarked) [DBCO-biotin, DBCO-Sulfo-Link-biotin, reference compound]	26.7	strong biotinylation							
VC-Sia: sialidase isolated from Vibrio cholerae, cleaves α2,3-, α2,6-, or α2,8-linked sialic acids			1.4 nmol/mg	significantly higher	significantly increased	significantly increased	significantly increased	minimally affected	
[Ir(dCO2HdFCF3ppy)2(bpy-dbco) [DBCO-iridium]	17.6	strong biotinylation							0.7 tags per catalyst
